Source: paper PMC8953834, “A Helquat-like Compound as a Potent Inhibitor of Flaviviral and Coronaviral Polymerases” (Molecules, 2022)

Tests used:
YFV RdRp = YFV RdRp (Yellow fever virus, UniProt P03314); test: biochemical
[1] = biological target: T1, SARS-CoV-2 RdRp (nsp7, nsp8 and nsp12) (Severe acute respiratory syndrome coronavirus 2, UniProt P0DTD1); type: biochemical
T1 construct: except for the full length nsp12 protein, which was expressed in insect cells; His6 (C); made in house; host or cells: nsp12 in insect cells; nsp7 and nsp8 in E. coli BL-21 CodonPlus (DE3)-RIL

SARS-CoV-2 [2] = test: SARS-CoV-2 yield reduction assay (plaque assay) in VERO-E6 cells; type: cell-based; details: MOI 0.04, 3 days
SARS-CoV-2 [3] = test: Anti-SARS-CoV-2 immunofluorescence assay (IFA) in VERO-E6 cells; type: cell-based; details: Severe acute respiratory syndrome coronavirus 2, Vero C1008, 72 h, MOI 0.02, 3 days, read-out: EC50, inhibition of SARS-CoV-2 (nucleoprotein IFA)
in vitro = details: pig
WNV RdRp = biological target: T2, WNV RdRp (West Nile virus, UniProt Q9Q6P4); test: biochemical
T2 construct: NS5 proteins and SARS-CoV-2 nsp12, nsp8 and nsp7 were expressed with appropriate purification and folding tags; His6-TEV site (N); made in house; host or cells: E. coli BL-21 CodonPlus (DE3)-RIL
T2 sequence (Q9Q6P4 2529-3433 limits assumed): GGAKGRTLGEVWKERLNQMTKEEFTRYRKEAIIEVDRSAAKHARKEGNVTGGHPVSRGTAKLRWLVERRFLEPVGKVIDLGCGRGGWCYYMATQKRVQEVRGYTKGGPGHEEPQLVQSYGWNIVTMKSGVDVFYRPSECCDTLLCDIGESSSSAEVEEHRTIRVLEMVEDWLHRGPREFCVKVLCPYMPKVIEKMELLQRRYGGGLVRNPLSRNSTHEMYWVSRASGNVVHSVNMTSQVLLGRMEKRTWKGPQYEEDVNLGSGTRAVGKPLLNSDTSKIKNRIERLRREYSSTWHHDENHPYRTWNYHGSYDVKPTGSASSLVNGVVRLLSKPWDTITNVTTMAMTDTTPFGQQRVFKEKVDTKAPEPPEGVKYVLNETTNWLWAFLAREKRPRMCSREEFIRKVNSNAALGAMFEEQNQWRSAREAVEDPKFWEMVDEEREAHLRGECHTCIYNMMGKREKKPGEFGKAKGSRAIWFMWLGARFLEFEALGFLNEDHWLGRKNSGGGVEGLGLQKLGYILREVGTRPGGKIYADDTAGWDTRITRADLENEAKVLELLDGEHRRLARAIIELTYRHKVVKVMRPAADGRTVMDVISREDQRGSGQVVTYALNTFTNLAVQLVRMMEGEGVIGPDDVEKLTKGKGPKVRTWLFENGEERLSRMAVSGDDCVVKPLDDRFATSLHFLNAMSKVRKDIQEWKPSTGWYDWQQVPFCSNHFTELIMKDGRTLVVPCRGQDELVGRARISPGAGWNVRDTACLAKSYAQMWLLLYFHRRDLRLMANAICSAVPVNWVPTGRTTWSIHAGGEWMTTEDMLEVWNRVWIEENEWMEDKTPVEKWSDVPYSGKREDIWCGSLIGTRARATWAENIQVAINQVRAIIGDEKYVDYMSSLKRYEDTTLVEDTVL

VERO-E6 cells = test: Cytotoxicity (XTT) in VERO-E6 cells; details: 3 days
TBEV (strain Hypr) = test: microbe, parasite or virus in culture; type: cell-based, tick-borne encephalitis virus; details: for EC50: Tick-borne encephalitis virus, 48 h, read-out: EC50, anti-TBEV activity
ZIKV RdRp = ZIKV RdRp (Zika virus, UniProt A0A1L5YKZ2); test: Radioactive polymerase assay (IC50), ZIKV RdRp; type: biochemical; details: radioactively labeled elongation products, [α-32P]-ATP, hairpin RNA
Sequence of ZIKV RdRp (A0A1L5YKZ2 2521-3423): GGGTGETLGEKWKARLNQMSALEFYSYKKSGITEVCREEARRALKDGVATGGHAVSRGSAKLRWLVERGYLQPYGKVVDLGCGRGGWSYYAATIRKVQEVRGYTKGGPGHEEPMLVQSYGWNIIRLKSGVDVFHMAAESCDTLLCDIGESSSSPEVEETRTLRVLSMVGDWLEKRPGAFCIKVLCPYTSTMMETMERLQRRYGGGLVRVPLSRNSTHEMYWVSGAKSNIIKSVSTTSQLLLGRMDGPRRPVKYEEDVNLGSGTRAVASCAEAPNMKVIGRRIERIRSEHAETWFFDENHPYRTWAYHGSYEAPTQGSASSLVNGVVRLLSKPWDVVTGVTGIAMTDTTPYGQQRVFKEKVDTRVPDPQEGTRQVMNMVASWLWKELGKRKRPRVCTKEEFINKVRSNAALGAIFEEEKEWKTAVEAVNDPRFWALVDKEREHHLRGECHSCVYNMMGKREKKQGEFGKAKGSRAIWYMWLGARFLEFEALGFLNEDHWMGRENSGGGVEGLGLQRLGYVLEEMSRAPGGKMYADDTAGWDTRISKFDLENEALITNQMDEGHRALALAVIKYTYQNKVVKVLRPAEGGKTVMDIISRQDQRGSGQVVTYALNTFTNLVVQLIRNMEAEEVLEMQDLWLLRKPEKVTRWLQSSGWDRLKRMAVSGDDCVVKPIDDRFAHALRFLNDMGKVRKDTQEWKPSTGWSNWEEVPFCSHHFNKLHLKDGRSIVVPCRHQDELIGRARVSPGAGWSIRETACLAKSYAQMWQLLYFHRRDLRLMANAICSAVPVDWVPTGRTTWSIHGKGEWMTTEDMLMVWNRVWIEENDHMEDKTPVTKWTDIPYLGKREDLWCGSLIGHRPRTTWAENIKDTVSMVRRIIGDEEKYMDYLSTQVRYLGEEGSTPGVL

SARS-CoV-2 RdRp = biological target: T3, SARS-CoV-2 RdRp (Severe acute respiratory syndrome coronavirus 2, UniProt P0DTD1); test: biochemical
T3 construct: except for the full length nsp12 protein, which was expressed in insect cells; His6 (C); made in house; host or cells: nsp12 in insect cells; nsp7 and nsp8 in E. coli BL-21 CodonPlus (DE3)-RIL

SARS-CoV-2 [4] = test: Anti-SARS-CoV-2 cytopathic effect (CPE)-based assay in Calu-3 cells; type: cell-based; details: Severe acute respiratory syndrome coronavirus 2, 72 h, MOI 0.04, 3 days, XTT, read-out: EC50, inhibition of virus-induced CPE
flaviviral RdRp = type: biochemical, Flaviviridae (JEV, NTAV, TBEV, YFV, ZIKV)
TBEV RdRp = TBEV RdRp (Tick-borne encephalitis virus, UniProt Q01299); test: biochemical
Sequence of TBEV RdRp (Q01299 2512-3414 limits assumed): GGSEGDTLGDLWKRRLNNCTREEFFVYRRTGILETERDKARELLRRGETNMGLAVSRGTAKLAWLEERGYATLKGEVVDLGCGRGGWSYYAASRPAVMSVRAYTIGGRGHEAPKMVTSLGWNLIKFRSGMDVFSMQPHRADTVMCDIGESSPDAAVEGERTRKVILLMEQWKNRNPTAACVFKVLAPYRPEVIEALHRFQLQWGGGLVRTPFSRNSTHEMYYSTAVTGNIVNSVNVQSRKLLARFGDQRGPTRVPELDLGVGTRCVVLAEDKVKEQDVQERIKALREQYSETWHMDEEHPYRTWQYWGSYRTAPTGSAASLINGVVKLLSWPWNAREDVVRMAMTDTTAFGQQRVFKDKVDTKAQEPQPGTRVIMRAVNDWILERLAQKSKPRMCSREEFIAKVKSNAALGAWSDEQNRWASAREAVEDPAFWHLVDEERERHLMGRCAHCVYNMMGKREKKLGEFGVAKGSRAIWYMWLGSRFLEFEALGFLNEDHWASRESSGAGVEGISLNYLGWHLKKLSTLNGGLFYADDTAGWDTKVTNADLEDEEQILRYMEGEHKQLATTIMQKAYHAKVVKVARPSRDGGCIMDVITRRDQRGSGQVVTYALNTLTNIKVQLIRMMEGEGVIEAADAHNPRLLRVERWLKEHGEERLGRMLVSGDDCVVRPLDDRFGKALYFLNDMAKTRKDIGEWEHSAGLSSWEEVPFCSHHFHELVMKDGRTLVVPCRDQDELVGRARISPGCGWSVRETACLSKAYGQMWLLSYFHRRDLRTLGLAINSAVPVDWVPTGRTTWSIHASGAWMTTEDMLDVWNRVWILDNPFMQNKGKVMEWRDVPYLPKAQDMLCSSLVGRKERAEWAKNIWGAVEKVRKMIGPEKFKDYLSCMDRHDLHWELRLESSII

JEV RdRp = biological target: T4, JEV RdRp (Japanese encephalitis virus, UniProt P32886); test: biochemical
T4 construct: NS5 proteins and SARS-CoV-2 nsp12, nsp8 and nsp7 were expressed with appropriate purification and folding tags; His6-TEV site (N); made in house; host or cells: E. coli BL-21 CodonPlus (DE3)-RIL
T4 sequence (P32886 2528-3432 limits assumed): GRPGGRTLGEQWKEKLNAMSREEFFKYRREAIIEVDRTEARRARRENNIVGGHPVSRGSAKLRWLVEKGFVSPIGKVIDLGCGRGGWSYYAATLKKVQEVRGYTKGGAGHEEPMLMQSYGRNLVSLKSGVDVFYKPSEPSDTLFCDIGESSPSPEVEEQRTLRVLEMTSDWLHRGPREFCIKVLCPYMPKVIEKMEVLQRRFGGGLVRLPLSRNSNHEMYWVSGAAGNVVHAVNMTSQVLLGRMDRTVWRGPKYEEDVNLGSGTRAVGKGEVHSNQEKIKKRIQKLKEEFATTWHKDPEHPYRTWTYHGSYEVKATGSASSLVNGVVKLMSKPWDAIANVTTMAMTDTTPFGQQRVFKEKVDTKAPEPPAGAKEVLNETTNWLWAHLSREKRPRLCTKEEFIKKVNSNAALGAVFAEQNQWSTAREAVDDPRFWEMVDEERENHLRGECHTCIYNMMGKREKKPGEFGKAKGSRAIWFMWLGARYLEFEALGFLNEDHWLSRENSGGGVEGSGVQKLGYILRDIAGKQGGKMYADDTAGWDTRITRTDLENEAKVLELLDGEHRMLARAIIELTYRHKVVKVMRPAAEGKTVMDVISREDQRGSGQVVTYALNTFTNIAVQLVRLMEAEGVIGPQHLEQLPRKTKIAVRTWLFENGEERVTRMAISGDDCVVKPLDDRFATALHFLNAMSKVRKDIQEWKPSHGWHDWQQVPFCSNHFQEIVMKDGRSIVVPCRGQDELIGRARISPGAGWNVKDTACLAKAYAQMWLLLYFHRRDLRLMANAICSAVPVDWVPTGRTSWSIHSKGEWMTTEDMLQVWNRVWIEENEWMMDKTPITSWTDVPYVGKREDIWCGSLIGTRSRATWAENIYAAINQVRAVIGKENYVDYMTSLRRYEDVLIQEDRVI

SARS-CoV-2 [5] = test: Anti-SARS-CoV-2 immunofluorescence assay (IFA) in Caco-2 cells; type: cell-based; details: Severe acute respiratory syndrome coronavirus 2, MOI 0.002, read-out: EC50, inhibition of SARS-CoV-2 replication (nucleoprotein IFA)
[6] = Cytotoxicity (XTT) in Caco-2 cells; details: human
Caco-2 cells = test: Cytotoxicity (XTT) in Caco-2 cells
NTAV RdRp = NTAV RdRp (Ntaya virus, UniProt K0BRZ6); test: Radioactive polymerase assay (IC50), NTAV RdRp; type: biochemical; details: radioactively labeled elongation products, [α-32P]-ATP, hairpin RNA
Sequence of NTAV RdRp (K0BRZ6 2523-3427): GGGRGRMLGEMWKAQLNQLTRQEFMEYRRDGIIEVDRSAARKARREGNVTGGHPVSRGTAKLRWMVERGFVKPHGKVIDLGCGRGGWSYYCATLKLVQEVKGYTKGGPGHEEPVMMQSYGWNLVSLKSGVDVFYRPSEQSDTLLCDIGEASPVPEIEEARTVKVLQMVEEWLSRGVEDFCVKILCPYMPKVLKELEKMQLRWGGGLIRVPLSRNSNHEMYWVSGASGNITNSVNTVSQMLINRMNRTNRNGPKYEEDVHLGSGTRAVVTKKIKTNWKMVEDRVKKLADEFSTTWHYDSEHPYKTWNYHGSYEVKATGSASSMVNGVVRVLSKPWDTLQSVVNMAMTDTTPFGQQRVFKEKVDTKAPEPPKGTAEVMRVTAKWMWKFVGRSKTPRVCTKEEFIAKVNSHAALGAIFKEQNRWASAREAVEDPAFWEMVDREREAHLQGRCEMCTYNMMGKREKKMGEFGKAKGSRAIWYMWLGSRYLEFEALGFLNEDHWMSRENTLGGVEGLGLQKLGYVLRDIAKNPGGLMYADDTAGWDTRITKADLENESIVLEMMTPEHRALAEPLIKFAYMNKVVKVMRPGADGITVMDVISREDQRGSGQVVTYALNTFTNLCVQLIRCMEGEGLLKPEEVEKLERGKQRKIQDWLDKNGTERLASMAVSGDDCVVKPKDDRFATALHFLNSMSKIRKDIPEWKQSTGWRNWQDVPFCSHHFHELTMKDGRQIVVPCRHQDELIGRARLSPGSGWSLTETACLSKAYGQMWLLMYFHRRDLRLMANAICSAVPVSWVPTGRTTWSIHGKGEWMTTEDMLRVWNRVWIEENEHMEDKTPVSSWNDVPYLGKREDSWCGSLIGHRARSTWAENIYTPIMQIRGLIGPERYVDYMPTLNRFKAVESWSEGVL

SARS-CoV-2 [7] = type: cell-based
[8] = Cytotoxicity (XTT) in Calu-3 cells; details: human
Calu-3 cells = test: Cytotoxicity (XTT) in Calu-3 cells

## Cc1c(C)c2c(c3c1CC[n+]1ccc(/C=C4\Sc5ccccc5N4C)cc1-3)-c1cccc(/C=C3\Sc4ccccc4N3C)[n+]1CC2 [PR673]
YFV RdRp
  IC50: 3 ± 0.1 µM
[1]
  PR673 concentration at which synthesis of RNA was totally blocked: above 12.5 µM
SARS-CoV-2 [2]
  activity compared with remdesivir in yield reduction assay: much less active than the COVID-19 drug remdesivir
SARS-CoV-2 [2]; at 50 µM
  reduction in viral plaques: 58%
SARS-CoV-2 [3]
  EC50: 29 µM
In vitro
  CC50: > 50 µM
WNV RdRp
  IC50: 3.4 ± 0.2 µM
VERO-E6 cells
  cell toxicity: no cell toxicity
TBEV (strain Hypr)
  anti-TBEV activity in comparison to 7-deaza-2′-CMA: almost four-fold higher
  compound concentration of complete inhibition of TBEV replication: 0.4 µM
  EC50: 0.11 µM
ZIKV RdRp
  IC50: 4.9 ± 0.5 µM
SARS-CoV-2 RdRp
  IC50: 4 ± 0.2 µM
SARS-CoV-2 [4]
  EC50: 18 µM
Flaviviral RdRp
  inhibition of RNA synthesis by flaviviral RdRps: strong inhibition of RNA synthesis in low micromolar concentrations
TBEV RdRp
  IC50: 3.6 ± 0.2 µM
JEV RdRp
  IC50: 3.9 ± 0.4 µM
SARS-CoV-2 [5]
  EC50: 17 µM
[6]
  CC50 at 3 days: > 50 µM
Caco-2 cells
  cytotoxicity at the highest used concentration: mild cytotoxicity
NTAV RdRp
  IC50: 3.1 ± 0.2 µM
SARS-CoV-2 [7]
  inhibition of virus replication (virus-induced CPE) in screen: inhibited the replication of the virus
[8]
  CC50 at 3 days: > 50 µM
Calu-3 cells
  cytotoxicity at the highest used concentration: mild cytotoxicity

## C[C@@]1(O)[C@H](O)[C@@H](CO)O[C@H]1n1ccc2c(N)ncnc21 [7-deaza-2′-CMA, 7-deaza-2′-C-methyladenosine, reference compound]
In vitro
  CC50: > 50 µM
TBEV (strain Hypr)
  EC50: 0.43 ± 0.06 µM
